Read-outs that look alike come from different tables or passages of the source.
Tests used:
[1] = system: Myzus persicae; assay: Myzus persicae - spray test; format: in vivo; conditions: for pest or weed control at 500 g/ha: Myzus persicae, foliar, 120 h, read-out: efficacy (aphids killed)
Description: Myzus persicae—Spray Test
To produce a suitable active ingredient formulation, 1 part by weight of active ingredient is dissolved with the specified parts by weight of solvent and made up to the desired concentration with water containing an emulsifier concentration of 1000 ppm. To produce further test concentrations, the formulation is diluted with emulsifier-containing water.
Discs of Chinese cabbage leaves (Brassica pekinensis) infested by all stages of the green peach aphid (Myzus persicae) are sprayed with an active ingredient formulation of the desired concentration.
(§1) After 5 days, the efficacy in % is determined. 100% means that all the aphids have been killed; 0% means that no aphids have been killed.

[2] = system: Myzus persicae; assay: Myzus persicae - oral test; format: in vivo; conditions: for pest or weed control at 4 ppm: Myzus persicae, 120 h, read-out: efficacy (aphids killed)
Description: To produce a suitable active ingredient formulation, 1 part by weight of active ingredient is dissolved with the specified parts by weight of solvent and made up to the desired concentration with water.
50 μl of the active ingredient formulation are transferred into microtitre plates and made up to a final volume of 200 μl with 150 μl of IPL41 insect medium (33%+15% sugar). Subsequently, the plates are sealed with parafilm, which a mixed population of green peach aphids (Myzus persicae) within a second microtitre plate is able to puncture and imbibe the solution.
as §1

[3] = log P by HPLC on reversed-phase (C18) columns, OECD Guideline 117; format: physicochemical
[4] = 500 g/ha, Chinese cabbage leaf discs, after 5 days
[5] = HPLC RP C18, acidic range pH 2.7, 0.1% formic acid/acetonitrile
[6] = HPLC RP C18, neutral range pH 7.8, ammonium hydrogencarbonate/acetonitrile
[7] = reversed-phase (C18) HPLC column, HPLC RP C18, acidic range pH 2.7, 0.1% formic acid/acetonitrile, read-out: logP[a]
[8] = reversed-phase (C18) HPLC column, HPLC RP C18, neutral range pH 7.8, ammonium hydrogencarbonate/acetonitrile, read-out: logP[n]

Compound	logP[a] [3, 5]	logP[n] [3, 6]	efficacy (aphids killed) [1, 4]	efficacy (aphids killed) ([2]; 4 ppm, oral, after 5 days)	also measured
CN(C(=O)c1cnc(C2CC(c3ccccc3C#N)=NO2)n1C)c1cccnc1 (stereo not drawn) [Example I-1-18]	1.34	1.55	90%	100%	
CN(C(=O)c1cnc(C2=NOC(c3ccccc3)C2)n1C)c1cccnc1 (stereo not drawn) [Example I-1-40, N,1-Dimethyl-2-(5-phenyl-4,5-dihydro-1,2-oxazol-3-yl)-N-(pyridin-3-yl)-1H-imidazole-5-carboxamide]					pest or weed control at 500 g/ha [1, 4]: 90%; pest or weed control at 4 ppm ([2]; 4 ppm, oral, after 5 days): 90%; chromatographic logP [3, 7]: 1.86; chromatographic logP [3, 8]: 1.97
CC(C)C1CC(c2ncc(C(=O)N(C)c3cccnc3)n2C)=NO1 (stereo not drawn) [Example I-1-37]	1.65	1.85			
C=Cc1ncc(C(=O)N(C)c2cccnc2)n1C [VII-1-1, N,1-Dimethyl-N-(pyridin-3-yl)-2-vinyl-1H-imidazole-5-carboxamide]					chromatographic logP [3, 8]: 0.82
CN(C(=O)c1cnc(C2CC(c3ccc(C#N)cc3)=NO2)n1C)c1cccnc1 (stereo not drawn) [Example I-1-20]	1.42	1.62	90%	100%	
CN(C)C(=O)C1CC(c2ncc(C(=O)N(C)c3cccnc3)n2C)=NO1 (stereo not drawn) [Example I-1-39]	0.78	1.12			
CN(C(=O)c1cnc(C2=NOC(C3CCCC3)C2)n1C)c1cccnc1 (stereo not drawn) [Example I-1-38]	2.09	2.21			
CN(C(=O)c1cnc(C2=NCCN2)n1C)c1cccnc1 [Example I-1-45, N,1-Dimethyl-N-(pyridin-3-yl)-4′,5′-dihydro-1H,1′H-2,2′-biimidazole-5-carboxamide]					chromatographic logP [3, 8]: 0.54
CN(C(=O)c1cnc(C2CC(c3cccnc3)=NO2)n1C)c1cccnc1 (stereo not drawn) [Example I-1-27]	0.64	1.09	90%	100%	
CN(C(=O)c1cnc(C2CC(c3cccc(Cl)c3Cl)=NO2)n1C)c1cccnc1 (stereo not drawn) [Example I-1-12]	2.07	2.25	100%	100%	
CN(C(=O)c1cnc(C2CC(c3cc(Cl)cc(Cl)c3)=NO2)n1C)c1cccnc1 (stereo not drawn) [Example I-1-17]	2.39	2.61	100%	100%	
CC1=NOC(C)(c2ncc(C(=O)N(C)c3cccnc3)n2C)C1 (stereo not drawn) [Example I-1-31]	0.53	0.96	90%	90%	
CCOC(=O)C1=NOC(c2ncc(C(=O)N(C)c3cccnc3)n2C)C1 (stereo not drawn) [Example I-1-5, Ethyl 5-{1-methyl-5-[methyl(pyridin-3-yl)carbamoyl]-1H-imidazol-2-yl}-4,5-dihydro-1,2-oxazole-3-carboxylate]					pest or weed control at 500 g/ha [1, 4]: 100%; pest or weed control at 4 ppm ([2]; 4 ppm, oral, after 5 days): 100%; chromatographic logP [3, 7]: 1.04; chromatographic logP [3, 8]: 1.32
CN(C(=O)c1cnc(C2CC(c3c(Cl)cccc3Cl)=NO2)n1C)c1cccnc1 (stereo not drawn) [Example I-1-15]	1.87	2.10	100%	100%	
CN(C(=O)c1cnc(C2CC(c3cc(Cl)ccc3Cl)=NO2)n1C)c1cccnc1 (stereo not drawn) [Example I-1-14]	2.13	2.32	90%	100%	
Cc1ccc(C2=NOC(c3ncc(C(=O)N(C)c4cccnc4)n3C)C2)cc1 (stereo not drawn) [Example I-1-21]	1.75	1.95	100%	100%	
CN(C(=O)c1cnc(C2CC(c3ccc(C(F)(C(F)(F)F)C(F)(F)F)cc3)=NO2)n1C)c1cccnc1 (stereo not drawn) [Example I-1-35]	3.01	3.08	100%	90%	

Compound	logP[a] [3, 5]	logP[n] [3, 6]	efficacy (aphids killed) [1, 4]	efficacy (aphids killed) ([2]; 4 ppm, oral, after 5 days)	also measured
CN(C(=O)c1cnc(C=NO)n1C)c1cccnc1 [XVIII-1-1, 2-[(Hydroxyimino)methyl]-N,1-dimethyl-N-(pyridin-3-yl)-1H-imidazole-5-carboxamide]					chromatographic logP [3, 8]: 0.51
CN(C(=O)c1cnc(C2CC(c3ccc(Cl)cc3Cl)=NO2)n1C)c1cccnc1 (stereo not drawn) [Example I-1-13]	2.23	2.41	100%	100%	
CN(C(=O)c1cnc(C=O)n1C)c1cccnc1 [XIII-1-1, 2-Formyl-N,1-dimethyl-N-(pyridin-3-yl)-1H-imidazole-5-carboxamide]					chromatographic logP [3, 7]: 0.43; chromatographic logP [3, 8]: 0.6
COc1ccc(C2=NOC(c3ncc(C(=O)N(C)c4cccnc4)n3C)C2)cc1 (stereo not drawn) [Example I-1-25]	1.46	1.74		100%	
CN(C(=O)c1cnc(C#N)n1C)c1cccnc1 [XXIII-1-1, 2-Cyano-N,1-dimethyl-N-(pyridin-3-yl)-1H-imidazole-5-carboxamide]					chromatographic logP [3, 7]: 0.63; chromatographic logP [3, 8]: 0.85
CN(C(=O)c1cnc(C2CC(c3ccccc3Cl)=NO2)n1C)c1cccnc1 (stereo not drawn) [Example I-1-9]	1.69	1.95	100%	100%	
CN(C(=O)c1cnc(C2CC(c3ccc(Cl)c(Cl)c3)=NO2)n1C)c1cccnc1 (stereo not drawn) [Example I-1-16]	2.27	2.48	100%	100%	
CN(C)C(=O)C1=NOC(c2ncc(C(=O)N(C)c3cccnc3)n2C)C1 (stereo not drawn) [Example I-1-6]	0.77	0.97	100%	100%	
CN(C(=O)c1cnc(I)n1C)c1cccnc1 [VI-1-1, 2-Iodo-N,1-dimethyl-N-(pyridin-3-yl)-1H-imidazole-5-carboxamide]					chromatographic logP [3, 7]: 0.66; chromatographic logP [3, 8]: 0.97
CN(C(=O)c1cnc(C2CC(c3ccc(OC(F)(F)F)cc3)=NO2)n1C)c1cccnc1 (stereo not drawn) [Example I-1-33]	2.28	2.42	90%		
CN(C(=O)c1cnc(C2=CC(=O)OC2)n1C)c1cccnc1 [Example I-1-47, N,1-Dimethyl-2-(5-oxo-2,5-dihydrofuran-3-yl)-N-(pyridin-3-yl)-1H-imidazole-5-carboxamide]					pest or weed control at 500 g/ha ([1]; in Brassica rapa): 90%; pest or weed control at 4 ppm ([2]; po): 100%; chromatographic logP [3, 7]: 0.46; chromatographic logP [3, 8]: 0.72
CN(C(=O)c1cnc(C2=NOC(c3cccnc3)C2)n1C)c1cccnc1 (stereo not drawn) [Example I-1-43]	0.56	1.35			
N#Cc1cccc(C=NO)c1 [IX-19, 3-(Hydroxyimino)methylbenzonitrile]					chromatographic logP ([3]; HPLC RP C18, acidic range pH 2.7, 0.1% formic acid/acetonitrile, read-out: logP[a]): 1.2
CN(C(=O)c1cnc(C2CC(c3c(Cl)cc(C(F)(F)F)cc3Cl)=NO2)n1C)c1cccnc1 (stereo not drawn) [Example I-1-34]	2.66	2.75	90%	100%	
CN(C(=O)c1cnc(C2CC(c3cccc(Cl)c3)=NO2)n1C)c1cccnc1 (stereo not drawn) [Example I-1-10]	1.88	2.10	100%	100%	
CN(C(=O)c1cnc(C2CC(c3ccc(Cl)cc3)=NO2)n1C)c1cccnc1 (stereo not drawn) [Example I-1-11]	1.97	2.12	100%	100%	

Second part, led by results:

logP[a] [3, 5]	logP[n] [3, 6]	Compound	efficacy (aphids killed) [1, 4]	efficacy (aphids killed) ([2]; 4 ppm, oral, after 5 days)	also measured
0.45	1.34	CN(C(=O)c1cnc(C2=NOC(c3ccncc3)C2)n1C)c1cccnc1 (stereo not drawn) [Example I-1-44]			
	0.74	CN1CCN=C1c1ncc(C(=O)N(C)c2cccnc2)n1C [Example I-1-46]			
1.09	1.46	CN(C(=O)c1cnc(C2=NOC(c3ccccn3)C2)n1C)c1cccnc1 (stereo not drawn) [Example I-1-42]			
2.49	2.60	CN(C(=O)c1cnc(C2=NOC(c3ccc(C(F)(F)F)cc3)C2)n1C)c1cccnc1 (stereo not drawn) [Example I-1-41]			
